US20260327214A1, “1,3,4-OXADIAZOLE DERIVATIVE COMPOUNDS AS HISTONE DEACETYLASE 6 INHIBITOR, AND USES THEREOF” (CHONG KUN DANG PHARMACEUTICAL CORP., priority 2022, published 2026)

How the values were obtained:
[1] = molecular target: T1, human recombinant HDAC1 (Homo sapiens, UniProt Q13547); experiment: HDAC1 enzyme activity inhibition test (HDAC Fluorometric Drug Discovery Kit); type: biochemical; conditions: 30° C., 60 minutes, 10 μM substrate
T1 construct: purchased Enzo Life Science BML-SE456
T1 sequence (Q13547 whole entry): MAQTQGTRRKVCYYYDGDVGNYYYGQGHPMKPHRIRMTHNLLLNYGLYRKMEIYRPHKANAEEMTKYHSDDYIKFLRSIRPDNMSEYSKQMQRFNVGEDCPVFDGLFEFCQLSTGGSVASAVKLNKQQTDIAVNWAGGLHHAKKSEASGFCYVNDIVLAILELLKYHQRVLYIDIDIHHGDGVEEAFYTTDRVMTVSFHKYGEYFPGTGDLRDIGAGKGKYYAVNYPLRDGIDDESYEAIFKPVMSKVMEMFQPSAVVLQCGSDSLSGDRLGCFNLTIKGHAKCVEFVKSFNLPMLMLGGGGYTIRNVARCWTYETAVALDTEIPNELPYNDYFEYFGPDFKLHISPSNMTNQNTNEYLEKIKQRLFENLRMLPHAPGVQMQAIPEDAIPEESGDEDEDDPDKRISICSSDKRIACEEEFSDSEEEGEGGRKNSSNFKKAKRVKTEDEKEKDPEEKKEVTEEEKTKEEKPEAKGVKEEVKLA
Method in brief: (§1)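 Recombinant human HDAC1 or HDAC6 (0.3 μg) reacted with 10 μM Fluor de Lys SIRT1 substrate and 5-fold diluted compound for 60 min at 30 °C. Developer II added 30 min; fluorescence read at Ex 360/Em 460 and IC50 calculated.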

[2] = molecular target: T2, human recombinant HDAC6 (Homo sapiens, UniProt Q9UBN7); experiment: HDAC6 enzyme activity inhibition test (HDAC Fluorometric Drug Discovery Kit); type: biochemical; conditions: for HDAC6 selectivity (fold): HDAC6 over HDAC1; for IC50: human recombinant HDAC6, same protocol as HDAC1
T2 construct: purchased Calbiochem 382180
T2 sequence (Q9UBN7 1-1215): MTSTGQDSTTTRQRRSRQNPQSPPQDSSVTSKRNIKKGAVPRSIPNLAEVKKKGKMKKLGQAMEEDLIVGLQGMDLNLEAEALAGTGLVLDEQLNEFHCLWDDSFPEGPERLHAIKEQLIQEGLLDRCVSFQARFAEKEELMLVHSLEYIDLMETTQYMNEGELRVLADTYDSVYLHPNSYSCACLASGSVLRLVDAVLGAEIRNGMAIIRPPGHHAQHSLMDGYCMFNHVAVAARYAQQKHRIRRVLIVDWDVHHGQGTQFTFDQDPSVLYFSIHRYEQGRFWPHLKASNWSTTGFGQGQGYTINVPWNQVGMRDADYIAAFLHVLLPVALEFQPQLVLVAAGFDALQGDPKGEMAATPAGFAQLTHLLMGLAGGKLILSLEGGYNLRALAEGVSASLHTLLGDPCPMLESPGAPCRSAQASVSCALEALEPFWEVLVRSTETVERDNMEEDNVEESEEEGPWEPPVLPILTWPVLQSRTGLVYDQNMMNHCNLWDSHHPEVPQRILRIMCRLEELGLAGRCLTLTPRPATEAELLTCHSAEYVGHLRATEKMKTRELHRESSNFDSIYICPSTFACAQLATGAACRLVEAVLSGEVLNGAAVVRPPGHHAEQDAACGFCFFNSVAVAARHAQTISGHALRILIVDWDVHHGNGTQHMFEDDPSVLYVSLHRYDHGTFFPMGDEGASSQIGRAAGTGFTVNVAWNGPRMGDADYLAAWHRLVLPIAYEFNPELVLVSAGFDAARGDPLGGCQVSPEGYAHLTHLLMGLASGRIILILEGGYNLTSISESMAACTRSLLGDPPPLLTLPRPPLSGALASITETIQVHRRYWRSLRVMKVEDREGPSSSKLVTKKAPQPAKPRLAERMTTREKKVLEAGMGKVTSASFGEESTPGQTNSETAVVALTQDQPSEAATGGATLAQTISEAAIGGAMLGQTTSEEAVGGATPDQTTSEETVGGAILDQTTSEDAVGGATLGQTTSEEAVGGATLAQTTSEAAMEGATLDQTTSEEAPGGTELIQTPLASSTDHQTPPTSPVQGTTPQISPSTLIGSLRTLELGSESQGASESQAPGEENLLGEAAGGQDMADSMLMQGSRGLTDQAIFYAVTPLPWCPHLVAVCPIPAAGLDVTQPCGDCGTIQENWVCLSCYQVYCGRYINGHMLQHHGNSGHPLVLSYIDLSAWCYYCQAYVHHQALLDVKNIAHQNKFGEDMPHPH
Method in brief: as §1

In the case of CCN(CC)Cc1cccc(-c2nn(Cc3ncc(-c4nnc(C(F)F)o4)cc3F)c(=S)o2)c1 [Compound 120, 5-[3-(diethylaminomethyl)phenyl]-3-[[5-[5-(difluoromethyl)-1,3,4-oxadiazol-2-yl]-3-fluoro-2-pyridyl]methyl]-1,3,4-oxadiazol-2-thione], the IC50 [1] is reported as over 50000 nM, the “HDAC6 selectivity (fold)” value [2] is reported as 630 fold and the IC50 [2] is reported as 79.5 nM.

In the case of CN1CCc2cc(-c3nn(Cc4ccc(-c5nnc(C(F)F)o5)cn4)c(=S)o3)sc2C1 [Compound 139, 3-[[5-[5-(difluoromethyl)-1,3,4-oxadiazol-2-yl]-2-pyridyl]methyl]-5-(6-methyl-5,7-dihydro-4H-thieno[2,3-c]pyridin-2-yl)-1,3,4-oxadiazol-2-thione], the IC50 [1] is reported as over 50000 nM, the “HDAC6 selectivity (fold)” value [2] is reported as 552 fold and the IC50 [2] is reported as 90.6 nM.

For CNCc1cccc(-c2nn(Cc3ccc(-c4nnc(C(F)F)o4)cn3)c(=S)o2)c1 [Compound 85, 3-[[5-[5-(difluoromethyl)-1,3,4-oxadiazol-2-yl]-2-pyridyl]methyl]-5-[3-(methylaminomethyl)phenyl]-1,3,4-oxadiazol-2-thione], the IC50 [1] was over 50000 nM, the “HDAC6 selectivity (fold)” value [2] was 447 fold and the IC50 [2] was 112 nM.

For O=c1oc(-c2cccc(N3CCN(C4COC4)CC3)n2)nn1Cc1ccc(-c2nnc(C(F)F)o2)cn1 [Compound 7, 3-[[5-[5-(difluoromethyl)-1,3,4-oxadiazol-2-yl]-2-pyridyl]methyl]-5-[6-[4-(oxetane-3-yl)piperazin-1-yl]-2-pyridyl]-1,3,4-oxadiazol-2-one], the IC50 [1] was over 50000 nM, the “HDAC6 selectivity (fold)” value [2] was 600 fold and the IC50 [2] was 83.3 nM.

With Fc1cc(-c2nnc(C(F)F)o2)cnc1Cn1nc(-c2ccc3c(c2)CCN(C2CCC2)C3)oc1=S [Compound 137, 5-(2-cyclobutyl-3,4-dihydro-1H-isoquinolin-6-yl)-3-[[5-[5-(difluoromethyl)-1,3,4-oxadiazol-2-yl]-3-fluoro-2-pyridyl]methyl]-1,3,4-oxadiazol-2-thione] the IC50 [1] was over 50000 nM, the “HDAC6 selectivity (fold)” value [2] was 1075 fold and the IC50 [2] was 46.5 nM.

CN1CCC(c2cccc(-c3nn(Cc4ccc(-c5nnc(C(F)F)o5)cn4)c(=O)o3)c2)CC1 [Compound 8, 3-[[5-[5-(difluoromethyl)-1,3,4-oxadiazol-2-yl]-2-pyridyl]methyl]-5-[3-(1-methyl-4-piperidyl)phenyl]-1,3,4-oxadiazol-2-one] was tested, and the IC50 [1] was over 50000 nM, the “HDAC6 selectivity (fold)” value [2] was 546 fold and the IC50 [2] was 91.6 nM.

In the case of O=c1oc(-c2ccc3[nH]ccc3c2)nn1Cc1ccc(-c2nnc(C(F)F)o2)cn1 [Compound 3, 3-[[5-[5-(difluoromethyl)-1,3,4-oxadiazol-2-yl]-2-pyridyl]methyl]-5-(1H-indol-5-yl)-1,3,4-oxadiazol-2-one], the IC50 [1] is reported as over 50000 nM, the “HDAC6 selectivity (fold)” value [2] is reported as 3497 fold and the IC50 [2] is reported as 14.3 nM.

With CC(C)N1CCN(Cc2cccc(-c3nn(Cc4ccc(-c5nnc(C(F)F)o5)cn4)c(=O)s3)c2)CC1 [Compound 63, 3-[[5-[5-(difluoromethyl)-1,3,4-oxadiazol-2-yl]-2-pyridyl]methyl]-5-[3-[(4-isopropylpiperazin-1-yl)methyl]phenyl]-1,3,4-thiadiazol-2-one] the IC50 [1] was over 50000 nM, the “HDAC6 selectivity (fold)” value [2] was 620 fold and the IC50 [2] was 80.7 nM.

For CCN1CCN(c2cccc(-c3nn(Cc4ncc(-c5nnc(C(F)F)o5)cc4F)c(=S)o3)n2)CC1 [Compound 103, 3-[[5-[5-(difluoromethyl)-1,3,4-oxadiazol-2-yl]-3-fluoro-2-pyridyl]methyl]-5-[6-(4-ethylpiperazin-1-yl)-2-pyridyl]-1,3,4-oxadiazol-2-thione], the IC50 [1] was over 50000 nM, the “HDAC6 selectivity (fold)” value [2] was 1302 fold and the IC50 [2] was 38.4 nM.
